Values quoted from earlier work in patent US9763983B2, “Natural killer cells from placenta” (ANTHROGENESIS CORPORATION, priority 2013, dated 2017).

Conditions: disclosed in US 2005/0096351 A1; for hygroscopicity: polymorphic form

| SMILES | stability / interconversion of polymorphic form | hygroscopicity |
| --- | --- | --- |
| Nc1cccc2c1CN(C1CCC(=O)NC1=O)C2=O (stereo not shown) [Form A, 3-(4-amino-1-oxo-1,3 dihydro-isoindol-2-yl)-piperidene-2,6-dione] | most thermodynamically stable anhydrous polymorph | weakly or not hygroscopic |
| Nc1cccc2c1CN(C1CCC(=O)NC1=O)C2=O (stereo not shown) [Form B, 3-(4-amino-1-oxo-1,3 dihydro-isoindol-2-yl)-piperidene-2,6-dione] | converts to Form E in aqueous solvent systems | – |
| Nc1cccc2c1CN(C1CCC(=O)NC1=O)C2=O (stereo not shown) [Form C, 3-(4-amino-1-oxo-1,3 dihydro-isoindol-2-yl)-piperidene-2,6-dione] | can convert to Form B at higher relative humidities | not hygroscopic below about 85% RH |
| Nc1cccc2c1CN(C1CCC(=O)NC1=O)C2=O (stereo not shown) [Form D, 3-(4-amino-1-oxo-1,3 dihydro-isoindol-2-yl)-piperidene-2,6-dione] | convert to Form B when stressed at higher relative humidities | either weakly or not hygroscopic |
